# Like-named read-outs stand apart in the source and are kept apart here.
# Key:
# [1] = target: T1, human DP1 receptor (Homo sapiens, UniProt Q13258); assay: HTRF cAMP assay, recombinant human DP1 receptor in CHO-K1 cells; type: cell-based; conditions: for Emax: CHO-K1, intrinsic activity relative to 1 μM PGD2, read-out: hDP1 % IA; for EC50: HTRF (cAMP) human DP1 receptor assay, mean of at least three determinations, read-out: EC50 hDP1
# T1 construct: expressed in transfected cells
# T1 sequence (Q13258 1-359): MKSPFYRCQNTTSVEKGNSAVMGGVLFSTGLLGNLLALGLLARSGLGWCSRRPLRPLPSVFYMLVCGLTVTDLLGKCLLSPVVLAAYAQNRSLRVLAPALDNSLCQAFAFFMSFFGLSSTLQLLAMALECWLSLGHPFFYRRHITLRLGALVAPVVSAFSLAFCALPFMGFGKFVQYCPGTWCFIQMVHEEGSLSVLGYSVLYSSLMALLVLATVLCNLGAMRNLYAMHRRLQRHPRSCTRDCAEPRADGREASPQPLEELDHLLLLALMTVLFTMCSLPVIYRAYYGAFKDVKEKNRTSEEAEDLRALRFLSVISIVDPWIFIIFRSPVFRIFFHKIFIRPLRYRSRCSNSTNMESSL
# Procedure: (§1) The new compounds were tested for functional agonist activity in a standard (Cisbio) cAMP assay using recombinant IP or DP1 receptors stably expressed in CHO-K1 cells. Clonal cell lines were derived following standard protocols, but receptor expression levels were kept to a minimum to preclude receptor reserve effects.
# (§2) For development of cAMP accumulation assays, recombinant IP or DP1 receptors were stably expressed in CHO-K1 cells and clonal cell lines derived following standard protocols. Receptor expression levels were minimized to preclude receptor reserve effects. HTRF cAMP assays were performed according to the manufacturer’s instructions (Cisbio, cAMP Dynamic 2 assay kit; no. 62AM4PEJ). IP receptor-expressing cells were harvested, resuspended in assay buffer (PBS containing 1 mM IBMX and 0.2% BSA) at a density of 200 000 cells per mL, and dispensed into 384-well assay plates (PerkinElmer Proxiplate no. 6008280) at 5 μL per well. Test compounds were solubilized and serially diluted in DMSO using 5-fold dilutions to generate a 10-point dose–response curve with a top concentration of 10 μM. The samples were then further diluted in PBS to achieve a 2× stock. Diluted compounds were then transferred to a triplicate set of assay plates (5 μL per well). After a 1 h incubation at room temperature, 5 μL of cAMP-D2 reagent diluted in lysis buffer was added to each well followed by 5 μL of cryptate reagent. Plates were then incubated at room temperature for 1 h prior to reading. Time-resolved fluorescence measurements were collected on PerkinElmer Envision or BMG Pherastar microplate readers.
# [2] = tested on: human platelet; assay: Inhibition of ADP-induced human platelet aggregation; type: cell-based; conditions: aggregation induced by 2.5 μM ADP, mean of at least two determinations
# Procedure: Such aggregated and activated platelets produce vasoactive substances such as thromboxane and serotonin that may cause harmful vasoconstriction and vascular remodeling.[13] […] This secondary assay was carried out as previously described,[14] with aggregation induced by 2.5 μM ADP in the presence or absence of IP receptor agonists.
# [3] = target: IP (Homo sapiens, UniProt P43119); assay: HTRF cAMP assay, recombinant human IP receptor stably expressed in CHO-K1 cells; type: cell-based; set-up: expressed in transfected cells
# Chain of IP (P43119 whole entry): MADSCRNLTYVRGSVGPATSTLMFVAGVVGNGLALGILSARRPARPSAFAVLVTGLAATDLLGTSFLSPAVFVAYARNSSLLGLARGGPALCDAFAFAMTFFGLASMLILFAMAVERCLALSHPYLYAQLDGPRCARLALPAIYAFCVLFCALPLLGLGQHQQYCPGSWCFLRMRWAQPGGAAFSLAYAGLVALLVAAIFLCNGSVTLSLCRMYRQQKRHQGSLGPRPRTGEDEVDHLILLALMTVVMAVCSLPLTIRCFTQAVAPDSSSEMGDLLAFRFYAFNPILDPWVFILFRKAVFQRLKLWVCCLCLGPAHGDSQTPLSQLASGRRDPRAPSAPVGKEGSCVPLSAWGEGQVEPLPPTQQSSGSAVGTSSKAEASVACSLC
# Procedure: as §1, §2
# [4] = target: rat IP (Rattus norvegicus, UniProt P43253); assay: HTRF cAMP assay, recombinant rat IP receptor; type: cell-based; set-up: expressed in transfected cells; conditions: for EC50: HTRF (cAMP) rat IP receptor assay, mean of at least three determinations; for Emax: read-out: rIP % IA
# Chain of rat IP (P43253 whole entry): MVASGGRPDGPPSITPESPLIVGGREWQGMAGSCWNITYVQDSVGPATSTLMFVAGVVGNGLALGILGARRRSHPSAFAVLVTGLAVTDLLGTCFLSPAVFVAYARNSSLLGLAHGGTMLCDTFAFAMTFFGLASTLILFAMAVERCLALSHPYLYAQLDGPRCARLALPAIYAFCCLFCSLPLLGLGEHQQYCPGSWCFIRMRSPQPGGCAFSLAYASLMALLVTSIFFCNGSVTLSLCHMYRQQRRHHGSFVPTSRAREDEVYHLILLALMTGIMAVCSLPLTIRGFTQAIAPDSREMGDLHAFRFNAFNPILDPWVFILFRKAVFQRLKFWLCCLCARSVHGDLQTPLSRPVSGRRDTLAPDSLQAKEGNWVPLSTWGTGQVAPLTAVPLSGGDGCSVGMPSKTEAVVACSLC
# Procedure: as §1, §2
# [5] = Stability in human microsome preparations; type: in vitro ADME; conditions: incubation at 37 °C, human microsomes; read-out: human MS, T1/2
# Source text: (§3) Table 1 Screening Data for Selected Analogues ^a | column: human and rat MS, T1/2 (min) ^g
# [6] = Stability in rat microsome preparations; type: in vitro ADME; conditions: incubation at 37 °C, rat microsomes; read-out: rat MS, T1/2
# Source text: as §3
# [7] = Rat PK (iv and oral); type: in vivo; conditions: for AUC(0-inf) / bioavailability: Sprague-Dawley, plasma; for AUC(0-inf): after oral administration 10 mg/kg (5m 10.5); for bioavailability: po, 10 mg/kg; for Cmax / Tmax: po 10 mg/kg (5m 10.5); for T1/2: terminal half-life after iv 2 mg/kg (5m 2.1); for Clobs: total clearance, iv 2 mg/kg (5m 2.1)
# [8] = HTRF (cAMP) human IP receptor assay; mean of at least three determinations
SMILES,Emax [1] [%],EC50 [1] [nM],IC50 [2] [nM],Emax ([3]; CHO-K1; read-out: hIP % IA) [%],"EC50 [3, 8] [nM]",EC50 [4] [nM],Emax [4] [%],half-life [5] [min],half-life [6] [min],AUC(0-inf) [7] [ng·h/mL],bioavailability [7] [%],Cmax [7] [µg/mL],Tmax [7] [min],T1/2 [7] [h],Clobs [7] [L h^–1 kg^–1],"Emax ([3]; CHO-K1, read-out: hIP % IA) [%]"
"O=C(O)COC[C@H]1CC[C@@H](COC(=O)N(c2ccccc2)c2ccccc2)CC1 [5b, 2-(((1s,4s)-4-((Diphenylcarbamoyloxy)methyl)cyclohexyl)methoxy)acetic Acid]",68,1710,54,81,54,472,94,,,,,,,,,
"O=C(O)COC[C@H]1CC[C@@H](COC(=O)N(c2ccccc2)c2ccc(Cl)cc2)CC1 [5d, 2-(((1s,4s)-4-(((4-Chlorophenyl)(phenyl)carbamoyloxy)methyl)cyclohexyl)methoxy)acetic Acid]",60,980,,,,560,88,,,,,,,,,80
"COc1ccc(N(C(=O)OC[C@H]2CC[C@H](COCC(=O)O)CC2)c2ccccc2)cc1 [5e, 2-(((1r,4r)-4-(((4-Methoxyphenyl)(phenyl)carbamoyloxy)methyl)cyclohexyl)methoxy)acetic Acid]",74,240,22,83,3.3,165,91,> 60,> 60,3400,100,0.95,18,0.3,3.4,
"COc1ccc(N(C(=O)OC[C@H]2CC[C@@H](COCC(=O)O)CC2)c2ccccc2)cc1 [5f, 2-(((1s,4s)-4-(((4-Methoxyphenyl)(phenyl)carbamoyloxy)methyl)cyclohexyl)methoxy)acetic Acid]",,,,16,1630,> 10000,,,,,,,,,,
"O=C(O)COC[C@H]1CC[C@@H](COC(=O)N(c2ccccc2)c2cccc(F)c2)CC1 [5h, 2-(((1s,4s)-4-(((3-Fluorophenyl)(phenyl)carbamoyloxy)methyl)cyclohexyl)methoxy)acetic Acid]",61,3870,93,79,62,561,88,,,,,,,,,
"O=C(O)COC[C@H]1CC[C@H](COC(=O)N(c2ccccc2)c2cccc(Cl)c2)CC1 [5i, 2-(((1r,4r)-4-(((3-Chlorophenyl)(phenyl)carbamoyloxy)methyl)cyclohexyl)methoxy)acetic Acid]",30,5070,,80,,272,88,> 60,> 60,,,,,,,
"COc1cccc(N(C(=O)OC[C@H]2CC[C@H](COCC(=O)O)CC2)c2ccccc2)c1 [5j, 2-(((1r,4r)-4-(((3-Methoxyphenyl)(phenyl)carbamoyloxy)methyl)cyclohexyl)methoxy)acetic Acid]",68,1720,23,92,12,470,94,> 60,53,1900,86,0.9,18,3.3,5.1,
"Cc1ccc(N(C(=O)OC[C@H]2CC[C@H](COCC(=O)O)CC2)c2ccccc2)cc1 [5k, 2-(((1r,4r)-4-((Phenyl(p-tolyl)carbamoyloxy)methyl)cyclohexyl)methoxy)acetic Acid]",53,320,39,81,3.9,174,99,,,,,,,,,
"O=C(O)COC[C@H]1CC[C@H](COC(=O)N(c2ccccc2)c2ccc(F)cc2)CC1 [5l, 2-(((1r,4r)-4-(((4-Fluorophenyl)(phenyl)carbamoyloxy)methyl)cyclohexyl)methoxy)acetic Acid]",55,620,12,89,6.6,535,91,> 60,> 60,7900,100,1.2,18,3.9,1.8,

# Continued, in another order:
Emax [1] [%],EC50 [1] [nM],IC50 [2] [nM],Emax ([3]; CHO-K1; read-out: hIP % IA) [%],"EC50 [3, 8] [nM]",EC50 [4] [nM],Emax [4] [%],half-life [5] [min],half-life [6] [min],AUC(0-inf) [7] [ng·h/mL],bioavailability [7] [%],Cmax [7] [µg/mL],Tmax [7] [min],T1/2 [7] [h],Clobs [7] [L h^–1 kg^–1],SMILES,"Emax ([3]; CHO-K1, read-out: hIP % IA) [%]"
,> 10000,142,79,38,1330,102,> 60,> 60,,,,,,,"O=C(O)COC[C@H]1CC[C@H](COC(=O)N(c2ccccc2)c2ccc(F)c(Cl)c2)CC1 [5n, 2-(((1r,4r)-4-(((3-Chloro-4-fluorophenyl)(phenyl)carbamoyloxy)methyl)cyclohexyl)methoxy)acetic Acid]",
65,1030,43,70,5.2,1570,60,,,,,,,,,"COc1ccc(N(C(=O)OC[C@H]2CC[C@H](COCC(=O)O)CC2)c2cccc(F)c2)cc1 [5p, 2-(((1r,4r)-4-(((3-Fluorophenyl)(4-methoxyphenyl)carbamoyloxy)methyl)cyclohexyl)methoxy)acetic Acid]",
35,1140,,70,18.5,3190,44,> 60,> 60,,,,,,,"O=C(O)COC[C@H]1CC[C@H](COC(=O)N(c2ccc(Cl)cc2)c2cccc(F)c2)CC1 [5q, 2-(((1r,4r)-4-(((4-Chlorophenyl)(3-fluorophenyl)carbamoyloxy)methyl)cyclohexyl)methoxy)acetic Acid]",
45,860,,65,41,> 10000,,,,,,,,,,"O=C(O)COC[C@H]1CC[C@H](COC(=O)N(c2ccc(F)cc2)c2ccc(F)cc2)CC1 [5r, 2-(((1r,4r)-4-((Bis(4-fluorophenyl)carbamoyloxy)methyl)cyclohexyl)methoxy)acetic Acid]",
57,808,30,76,7.8,1630,54,> 60,> 60,,,,,,,"O=C(O)COC[C@H]1CC[C@H](COC(=O)N(c2ccc(F)cc2)c2cccc(F)c2)CC1 [5s, 2-(((1r,4r)-4-(((4-Fluorophenyl)(3-fluorophenyl)carbamoyloxy)methyl)cyclohexyl)methoxy)acetic Acid]",
,> 10000,,75,23,2720,56,> 60,> 60,,,,,,,"O=C(O)COC[C@H]1CC[C@H](COC(=O)N(c2cccc(F)c2)c2ccc(Cl)c(F)c2)CC1 [5t, 2-(((1r,4r)-4-(((4-Chloro-3-fluorophenyl)(3-fluorophenyl)carbamoyloxy)methyl)cyclohexyl)methoxy)acetic Acid]",
,,,93,25,,,,,,,,,,,O=C(O)COC[C@H]1CC[C@H](COC(=O)N(c2ccc(O)cc2)c2ccc(Cl)cc2)CC1 [M2],
,,,78,1050,,,,,,,,,,,O=C(COC[C@H]1CC[C@H](COC(=O)N(c2ccc(O)cc2)c2ccc(Cl)cc2)CC1)NCCS(=O)(=O)O [M3],
48,,62,98,,,100,> 60,> 60,,,,,,,"CC(C)N(CCCCOCC(=O)NS(C)(=O)=O)c1cnc(-c2ccccc2)c(-c2ccccc2)n1 [compound 1, selexipag, reference compound]",

# Reference: publication PMC11602115 (Journal of Medicinal Chemistry, 2017)
